Data taken from US20090105278A1, “Selective inhibitors of human corticosteroid syntheses” (Universitat Des Saarlandes, priority 2004, published 2009).
Where a name gives a salt, the structure may show the parent alone. Read-outs that look alike come from different tables or passages of the source.

Experiments:
human placental CYP19 = molecular target: T1, human placental CYP19 (Homo sapiens, UniProt P11511); test: IC50 of CYP19 (human placental microsomes); format: biochemical
T1 construct: The enzyme was obtained from the microsome fraction of fresh human placenta; from tissue; host or cells: human placenta, microsomal fraction
T1 sequence (P11511 1-503): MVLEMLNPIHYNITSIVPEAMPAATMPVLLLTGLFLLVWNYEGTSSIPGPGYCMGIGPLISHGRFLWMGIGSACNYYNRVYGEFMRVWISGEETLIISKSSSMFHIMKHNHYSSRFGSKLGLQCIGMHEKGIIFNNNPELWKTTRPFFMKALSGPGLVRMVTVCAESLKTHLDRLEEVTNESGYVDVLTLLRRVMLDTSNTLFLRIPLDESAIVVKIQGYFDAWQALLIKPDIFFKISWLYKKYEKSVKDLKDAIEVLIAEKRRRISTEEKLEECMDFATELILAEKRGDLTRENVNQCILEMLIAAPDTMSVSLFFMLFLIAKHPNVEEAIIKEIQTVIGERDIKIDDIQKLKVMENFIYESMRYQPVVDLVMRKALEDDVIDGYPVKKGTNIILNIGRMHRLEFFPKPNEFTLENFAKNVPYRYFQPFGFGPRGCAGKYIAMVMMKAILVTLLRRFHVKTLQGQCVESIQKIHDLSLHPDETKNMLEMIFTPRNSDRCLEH
Protocol: The isolated microsomes were suspended in a minimum volume of phosphate buffer (0.05 M; pH 7.4; […]). In addition, DTT (10 mM) and EDTA (1 mM) were added to protect the enzyme from degradation reactions.
[…] […] The compounds to be tested were dissolved in DMSO and diluted with buffer to the desired concentration. The final DMSO concentration of the control and inhibitor incubations was about 20%. Each vessel was preincubated in a water bath at 30° C. for 5 min. The reaction was started by adding the microsomal protein (0.1 mg). The total volume of each mixture was 200 μl. After 14 min, the reaction was quenched by adding 200 μl of ice cold 1 mM HgCl2 solution. Two hundred microliters of a 2% aqueous suspension of dextran-coated charcoal, DCC) was added for absorbing the steroids, and the vessels were shaken for 20 min. Thereafter, the charcoal was centrifuged off at 1500 g for 5 min. The radioactive water present in the supernatant (^3H2O) was assayed by scintillation measurement using an LKB-Wallac beta counter. The calculation of the IC50 values was effected by a semilogarithmic plot of the percent inhibition against the inhibitor concentration.

human CYP11B2 = molecular target: T2, human CYP11B2 (Homo sapiens, UniProt P19099); test: Screening test in transgenic fission yeast (S. pombe PE1) expressing human CYP11B2; format: cell-based; set-up: expressed in transfected cells
T2 sequence (P19099 25-503): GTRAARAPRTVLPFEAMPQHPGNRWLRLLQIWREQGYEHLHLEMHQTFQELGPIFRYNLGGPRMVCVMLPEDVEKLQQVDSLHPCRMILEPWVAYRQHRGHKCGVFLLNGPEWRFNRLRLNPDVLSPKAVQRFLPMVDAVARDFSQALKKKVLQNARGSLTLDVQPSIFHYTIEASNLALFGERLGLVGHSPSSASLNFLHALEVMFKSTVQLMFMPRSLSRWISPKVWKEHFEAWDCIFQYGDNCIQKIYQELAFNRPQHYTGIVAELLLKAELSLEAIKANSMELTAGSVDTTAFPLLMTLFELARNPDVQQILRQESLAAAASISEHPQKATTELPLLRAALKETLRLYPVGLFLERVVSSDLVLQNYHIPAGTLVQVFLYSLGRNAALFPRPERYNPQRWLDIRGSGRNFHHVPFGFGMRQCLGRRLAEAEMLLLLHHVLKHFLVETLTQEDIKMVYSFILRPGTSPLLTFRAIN
In short: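 Deoxycorticosterone conversion to corticosterone, 18-hydroxycorticosterone and aldosterone assessed after EtOAc extraction by HPTLC with 14C phosphorimaging. Conversion rate calculated from quantified steroid spots.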

[1] = human placental CYP19, testosterone substrate 2.5 μM
[2] = S. pombe cells which express human CYP11B2, deoxycorticosterone substrate 100 nM, inhibitor 500 nM
[3] = S. pombe cells which express human CYP11B2, deoxycorticosterone substrate 100 nM, inhibitor 500 nM, read-out: % Inhibition human hCYP11B2
[4] = read-out: % Inhibition human hCYP11B2

Row | Compound | IC50 (human placental CYP19; [1]) [µM] | inhibition at 0.5 µM (human CYP11B2; [3]) [%] | further results
1 | 5-[(E)-(6-Chloro-3,4-dihydronaphth-1(2H)-ylidene)methyl]-1H-imidazolium chloride [Compound 46a] | 0.12 |  | % Inhibition human hCYP11B2 (human CYP11B2; [2]): 48%
2 | 5-[(Z)-3,4-Dihydronaphth-1(2H)-ylidenemethyl]-1H-imidazolium oxalate [Compound 41b] | 0.19 |  | % Inhibition human hCYP11B2 (human CYP11B2; [2]): 82%
3 | 5-[(Z)-(5-Bromo-2,3-dihydro-1H-indene-1-ylidene)methyl]-1H-imidazolium oxalate [Compound 49b] |  |  | % Inhibition human hCYP11B2 (human CYP11B2; [2]): 76%
4 | 5-[(Z)-(5-Chloro-2,3-dihydro-1H-indene-1-ylidene)methyl]-1H-imidazolium oxalate [Compound 48b] | 0.039 |  | % Inhibition human hCYP11B2 (human CYP11B2; [2]): 80%
5 | C(=C1\CCc2ccccc21)/c1cccnc1.Cl [Compound 1b, 3-[(Z)-2,3-Dihydro-1H-indane-1-ylidenemethyl]pyridine Hydrochloride] |  |  | IC50 (human placental CYP19): 3.55 µM; % Inhibition human hCYP11B2 (human CYP11B2; [2]): 83%
6 | C(=C1\CCc2ccccc21)/c1ccncc1 [Compound 2b, 4-[(Z)-2,3-Dihydro-1H-indane-1-ylidenemethyl]pyridine oxalate] | 12.7 |  | 
7 | C(=C1\CCCc2ccccc21)/c1cccnc1.Cl [Compound 3b, 3-[(Z)-3,4-Dihydronaphthalene-1(2H)-ylidenemethyl]pyridine Hydrochloride] | 3.79 | 68 | 
8 | Fc1ccc2c(c1)CC/C2=C\c1cccnc1 [Compound 5a, 3-[(E)-(5-Fluoro-2,3-dihydro-1H-indane-1-ylidene)methyl]pyridine Hydrochloride] | 2.54 | 88 | 
9 | Fc1ccc2c(c1)CC/C2=C/c1cccnc1 [Compound 5b, 3-[(Z)-(5-Fluoro-2,3-dihydro-1H-indane-1-ylidene)methyl]pyridine Hydrochloride] | 2.49 |  | inhibition at 0.5 µM (human CYP11B2; [4]): 89%; inhibition at 0.5 µM (human CYP11B2; read-out: S. pombe PE1 CYP11B2 DOC % inhibition): 88.6%
10 | Fc1ccc2c(c1)CC/C2=C\c1ccncc1 [Compound 6a, 4-[(E)-(5-Fluoro-2,3-dihydro-1H-indane-1-ylidene)methyl]pyridine Hydrochloride] | 1.55 |  | inhibition at 0.5 µM (human CYP11B2; [4]): 37%
11 | Fc1ccc2c(c1)CC/C2=C/c1ccncc1 [Compound 6b, 4-[(Z)-(5-Fluoro-2,3-dihydro-1H-indane-1-ylidene)methyl]pyridine Hydrochloride] | 0.8 |  | inhibition at 0.5 µM (human CYP11B2; [4]): 77%
12 | Clc1ccc2c(c1)CC/C2=C\c1ccncc1 [Compound 8a, 4-[(E)-(5-Chloro-2,3-dihydro-1H-indane-1-ylidene)methyl]pyridine Hydrochloride] | 5.43 |  | inhibition at 0.5 µM (human CYP11B2; [4]): 38%
13 | Brc1ccc2c(c1)CC/C2=C\c1ccncc1 [Compound 10a, 4-[(E)-(5-Bromo-2,3-dihydro-1H-indane-1-ylidene)methyl]pyridine Hydrochloride] |  |  | inhibition at 0.5 µM (human CYP11B2; [4]): 17%
14 | COc1ccc2c(c1)CC/C2=C\c1cccnc1 [Compound 11a, 3-[(E)-(5-Methoxy-2,3-dihydro-1H-indane-1-ylidene)methyl]pyridine Hydrochloride] | 4.31 | 79 | 
15 | COc1ccc2c(c1)CCC/C2=C\c1cccnc1 [Compound 13a, 3-[(E)-(6-Methoxy-3,4-dihydronaphthalene-1(2H)-ylidene)methyl]pyridine Hydrochloride] | 1.13 | 52 | 
16 | Cc1cccc2c1CC/C2=C\c1cccnc1 [Compound 23a, 3-[(E)-(4-Methyl-2,3-dihydro-1H-indane-1-ylidene)methyl]pyridine Hydrochloride] | 4.72 | 52 | 
17 | Fc1cccc2c1CC/C2=C\c1cccnc1 [Compound 24a, 3-[(E)-(4-Fluoro-2,3-dihydro-1H-indane-1-ylidene)methyl]pyridine Hydrochloride] | 1.81 | 84 | 
18 | Clc1cccc2c1CC/C2=C\c1cccnc1 [Compound 25a, 3-[(E)-(4-Chloro-2,3-dihydro-1H-indane-1-ylidene)methyl]pyridine Hydrochloride] | 0.13 | 92 | 
19 | C(=C1/CCc2ccccc21)/c1cnc[nH]1 [Compound 42a, 5-[(E)-2,3-Dihydro-1H-indane-1-ylidenemethyl]-1H-imidazole] |  | 77 | 
20 | C(=C1\CCc2ccccc21)/c1cnc[nH]1 [Compound 42b, 5-[(Z)-2,3-Dihydro-1H-ind-1-ylidenemethyl]-1H-imidazolium oxalate] |  | 81 | 
21 | Brc1ccc2c(c1)CC/C2=C\c1cnc[nH]1.Cl [Compound 49a, 5-[(E)-(5-Bromo-2,3-dihydro-1H-indene-1-ylidene)methyl]-1H-imidazolium chloride] |  | 68 | 

The next lines start with results.

Row | IC50 (human placental CYP19; [1]) [µM] | inhibition at 0.5 µM (human CYP11B2; [3]) [%] | Compound | further results
22 | 2.04 | 82 | C(=C1/CCc2ccccc21)/c1cccnc1 [Compound 1a, 3-[(E)-2,3-Dihydro-1H-indane-1-ylidenemethyl]pyridine Hydrochloride] | 
23 | 6.58 | 70 | C(=C1/CCCc2ccccc21)/c1cccnc1.Cl [Compound 3a, 3-[(E)-3,4-Dihydronaphthalene-1(2H)-ylidenemethyl]pyridine Hydrochloride] | 
24 | 4.26 | 75 | Clc1ccc2c(c1)CC/C2=C\c1cccnc1 [Compound 7a, 3-[(E)-(5-Chloro-2.3-dihydro-1H-indane-1-ylidene)methyl]pyridine Hydrochloride] | 
25 | 4.05 | 68 | Clc1ccc2c(c1)CC/C2=C/c1cccnc1 [Compound 7b, 3-[(Z)-(5-Chloro-2,3-dihydro-1H-indane-1-ylidene)methyl]pyridine Hydrochloride] | 
26 | 7.83 | 60 | Brc1ccc2c(c1)CC/C2=C\c1cccnc1 [Compound 9a, 3-[(E)-(5-Bromo-2,3-dihydro-1H-indane-1-ylidene)methyl]pyridine Hydrochloride] | 
27 | 7.37 | 58 | Brc1ccc2c(c1)CC/C2=C/c1cccnc1 [Compound 9b, 3-[(Z)-(5-Bromo-2,3-dihydro-1H-indane-1-ylidene)methyl]pyridine Hydrochloride] | 
28 | 5.57 | 81 | COc1ccc2c(c1)CC/C2=C/c1cccnc1 [Compound 11b, 3-[(Z)-(5-Methoxy-2,3-dihydro-1H-indane-1-ylidene)methyl]pyridine Hydrochloride] | 
29 | 4 | 53 | COc1ccc2c(c1)CCC/C2=C/c1cccnc1.Cl [Compound 13b, 3-[(Z)-(6-Methoxy-3,4-dihydronaphthalene-1(2H)-ylidene)methyl]pyridine Hydrochloride] | 
30 | 7.08 | 67 | CCOc1ccc2c(c1)CC/C2=C\c1cccnc1 [Compound 19a, 3-[(E)-(5-Ethoxy-2,3-dihydro-1H-indane-1-ylidene)methyl]pyridine Hydrochloride] | 
31 | 7.68 | 52 | CCOc1ccc2c(c1)CC/C2=C/c1cccnc1 [Compound 19b, 3-[(Z)-(5-Ethoxy-2,3-dihydro-1H-indane-1-ylidene)methyl]pyridine Hydrochloride] | 
32 | 0.23 | 83 | Clc1cccc2c1CC/C2=C/c1cccnc1 [Compound 25b, 3-[(Z)-(4-Chloro-2,3-dihydro-1H-indane-1-ylidene)methyl]pyridine Hydrochloride] | 
